Results published in US20250082760A1 (priority 2020, published 2025).
Where a name gives a salt, the structure may show the parent alone.

Legend:
[1] = stability (degradation test) in acidified plasma; assay type: in vitro ADME, rat; conditions: for Sample Peak Average: rat, 5 μmol/ml
Description: • a: Compound 5 prepared in Example 5 was dissolved in purified water to prepare solution A with a concentration of 10 mg/ml; 150 μl of solution A was added to 660 μl of pre-warmed plasma (37° C.), and the pH was adjusted with 0.1% acetic acid to dissolve the sample clear to obtain solution B; • b: Solution B (5 μmol/ml) was stirred in a water bath at 37° C. for a certain period of time (1 min, 2 min, 4 min, 8 min, 16 min, 30 min, 1 h, 2 h, 4 h) and 50 μl was sampled at each time point; • c: 50 μl of the sampled solution was added to 950 μl methanol (0.1% AcH) to precipitate plasma proteins, resulting in mixture C. • d: The mixture C was vortexed for 1 s, centrifuged at 12000 r for 3 min, and the supernatant was taken for testing.
(§1) Liquid phase detection: take 10 μl of the supernatant after the above centrifugation into a sample for measurement.

[2] = test system: convulsions in mice induced by electrical stimulation; assay: anticonvulsant effect on mice induced by electrical stimulation; assay type: in vivo; conditions: compared with blank group
Description: (1) Divide 40 mice (20♀20) into 5 groups at random, with 8 mice (4♀4) in each group, and label No. 1 to No. 8 with picric acid respectively; (2) All mice were tested according to the order of groups and labels electrical stimulation, the initial voltage was 40V, the voltage was increased by 2.5V each time, the time interval between two electrical stimulations for the same mouse was 20 min, the threshold voltage value of convulsion and the time from convulsion to complete recovery were recorded, and the dead mice were discarded, qualified mice were screened; (3) After screening, 7 mice (2♀5) in the 40 mice could not recover after convulsions and died, and the remaining 33 qualified mice […]; (4) From standby 7 mice were screened out as a supplement, and the number of the dead mice in step (2) was marked with picric acid and added to the corresponding groups, so that a total of 40 (20♀20) qualified mice in 5 groups were finally obtained., all mice were weighed and recorded.
Positive drug: sodium valproate (specification 0.2 g), take 1 tablet in a mortar, add 20 ml of 0.5% CMC-Na solution while grinding, to a suspended state, set EP tube for use; test drug (compound 5): Dissolve in distilled water to 5, 10, and 20 mg/ml solutions, respectively, and set EP tubes for later use.
Electrical stimulation was performed 1.5 hours after the last administration, and each mouse was given the threshold voltage measured before to observe the experimental phenomenon and record whether there was convulsions and death occurred.
The first group was the blank control group, which was given 0.4 ml/20 g of 0.5% CMC-Na by gavage; the second group was the positive drug control group, which was given sodium valproate 200 mg/kg by gavage; the third group was the test drug the low-dose group, which was given 100 mg/kg of compound 5 by gavage; the fourth group was the test drug medium-dose group, which was given 200 mg/kg of compound 5 by gavage; the fifth group was the test drug high-dose group, which was given 400 mg/kg of compound 5 by gavage.
1.5 h after the last administration, electrical stimulation was performed according to the threshold voltage measured before each mouse, the experimental phenomenon was observed, and the occurrence of convulsions and death were recorded. If convulsion occurs, record the time of complete recovery; if no convulsion occurs, continue to increase the voltage with a gradient of 2.5V to measure the current threshold voltage value and recovery time.
Strictly follow the 5 periods of convulsion in mice, namely, latency period, rigid flexion period, hindlimb extension period, clonic period and recovery period to judge whether the mice have convulsions after electrical stimulation, and the phenomenon of death can not be recovered after convulsions.

[3] = stability (degradation test) in fresh rat plasma; assay type: in vitro ADME; conditions: for Sample Peak Average: rat, 5 μmol/ml
Description: Experimental sample: compound 5 prepared in Example 5; 5% glucose (Xi′an Jingxi Shuanghe Pharmaceutical Co., Ltd.); rat plasma (source: Animal Center, Department of Medicine, Xi′an Jiaotong University) Fresh plasma sample preparation: • a: Compound 5 prepared in Example 5 was dissolved in purified water to prepare solution A with a concentration of 10 mg/ml; 150 μl of solution A was added to 660 μl of preheated plasma (37° C.) to obtain solution B; • b: Solution B (5 μmol/ml) was stirred in a 37° C. water bath for a certain period of time (1 min, 2 min, 4 min, 8 min, 16 min, 30 min, 1 h, 2 h, 4 h) and 50 μl was sampled at each time point; • c: 50 μl of sampled solution) was added to 950 μl of methanol (0.1% AcH) to precipitate plasma proteins, resulting in mixture C; • d: The mixture C was vortexed for 1 s, centrifuged at 12000 r for 3 min, and the supernatant was taken for testing.
as §1

## CC(C)c1cccc(C(C)C)c1OC(=O)CC1(CN(C)C)CCCCC1 [Compound 5, 2,6-diisopropylphenyl 2-(1-((dimethylamino)methyl)cyclohexyl)acetate hydrochloride]
[1]; plasma acidified with 0.1% acetic acid, 37° C., up to 2 h
  degradation / stability in acidified plasma: not significantly degraded
[1]; 1 min
  Sample Peak Average: 196752060
[1]; 2 min
  Sample Peak Average: 189140125
[1]; 4 min
  Sample Peak Average: 184526452
[1]; 8 min
  Sample Peak Average: 182379068
[1]; 16 min
  Sample Peak Average: 176475001
[1]; 30 min
  Sample Peak Average: 179508039
[1]; 1 h
  Sample Peak Average: 175087504
[1]; 2 h
  Sample Peak Average: 171193983
physchem
  logP: 1.37
[2]; 100 mg/kg gavage, p>0.05
  anti-electrical convulsion ability (threshold voltage increase): no significant effect
[2]; 200 mg/kg gavage, p>0.05
  anti-electrical convulsion ability (threshold voltage increase): no significant effect
[2]; 400 mg/kg gavage, p<0.01
  anti-electrical convulsion ability (threshold voltage increase): significantly improve
[2]; sodium valproate 200 mg/kg, compound 5 100, 200, 400 mg/kg gavage, p>0.05
  weight gain of mice: no difference
[3]; fresh rat plasma, 37° C., up to 4 h
  degradation / stability in fresh plasma: not significantly degraded
[3]; 1 min
  Sample Peak Average: 203062103
[3]; 2 min
  Sample Peak Average: 181706084
[3]; 4 min
  Sample Peak Average: 161303805
[3]; 8 min
  Sample Peak Average: 178769005
[3]; 16 min
  Sample Peak Average: 189298224
[3]; 1 h
  Sample Peak Average: 230407155
[3]; 2 h
  Sample Peak Average: 260803581
[3]; 4 h
  Sample Peak Average: 246523592
